Experimental data from the supplement of paper PMC12325586.

Test system: MIA PaCa-2
Experimental: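 MIA PaCa-2 Tet-on shOFD1 pancreatic cancer cells (2000 cells/well, 96-well) were treated with Selleck FDA-approved library compounds at 0, 1, 5, 10, 25 and 50 µM, with extra concentrations added where needed, for 72 h at 37 °C. Knockdown wells also received 100 ng/mL doxycycline; control wells received DMSO without doxycycline. Viability was read by CCK-8 absorbance at 450 nm and normalised to DMSO control wells. IC50 was fitted in GraphPad Prism as a 4-parameter logistic with bottom fixed at 0 and top fixed at 1; at least 3 technical replicate wells per condition.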

[1] = OFD1 knockdown: no (no doxycycline)
[2] = OFD1 knockdown: yes (Tet-on shOFD1, 100 ng/mL doxycycline)

Compound	IC50 cell viability [1]	IC50 cell viability [2]
CCOc1ccc(Cc2cc([C@@H]3O[C@H](CO)[C@@H](O)[C@H](O)[C@H]3O)ccc2Cl)cc1 [S1548]	16.5 µM	17 µM
CCC1=C[C@@H]2CN(C1)Cc1c([nH]c3ccccc13)[C@@](C(=O)OC)(c1cc3c(cc1OC)N(C)[C@H]1[C@@](O)(C(=O)OC)[C@H](OC(C)=O)[C@]4(CC)C=CCN5CC[C@]31[C@@H]54)C2 [S4269]	3.46 µM	3.12 µM
CC[C@H](Nc1ncnc2[nH]cnc12)c1nc2cccc(F)c2c(=O)n1-c1ccccc1 [S2226]	22.7 µM	24.4 µM
O=c1[nH]cc(F)c(=O)[nH]1 [S1209]	3.34 µM	2.54 µM
COC(=O)c1ccc2c(C(=Nc3ccc(N(C)C(=O)CN4CCN(C)CC4)cc3)c3ccccc3)c(O)[nH]c2c1 [S1010]	4.96 µM	4.24 µM
CNC(=O)c1cc(Oc2ccc(NC(=O)Nc3ccc(Cl)c(C(F)(F)F)c3)cc2)ccn1 [S1040]	8.15 µM	7.5 µM
COc1cc(Nc2ncc3c(n2)-c2ccc(Cl)cc2C(c2c(F)cccc2OC)=NC3)ccc1C(=O)O [S1133]	8.24 µM	10.5 µM
CCN(CC)C(=S)SSC(=S)N(CC)CC [S1680]	46.3 µM	49.8 µM
C=CCNC1=C2C[C@@H](C)C[C@H](OC)[C@H](O)[C@@H](C)/C=C(\C)[C@H](OC(N)=O)[C@@H](OC)/C=C\C=C(/C)C(=O)NC(=CC1=O)C2=O [S1141]	1.07 µM	0.75 µM
CCCCCOC(=O)Nc1nc(=O)n([C@@H]2O[C@H](C)[C@@H](O)[C@H]2O)cc1F [S1156]	34 µM	34.3 µM
C#Cc1cccc(Nc2ncnc3cc(OC)c(OCCCCCCC(=O)NO)cc23)c1 [S1194]	1.35 µM	1.14 µM
Cn1cnc2c(F)c(Nc3ccc(Br)cc3Cl)c(C(=O)NOCCO)cc21 [S1008]	1.66 µM	1.44 µM
CN1CC(=O)N2[C@H](c3ccc4c(c3)OCO4)c3[nH]c4ccccc4c3C[C@@H]2C1=O [S1512]	23.7 µM	23.5 µM
CO[C@H]1C[C@@H]2CC[C@@H](C)[C@@](O)(O2)C(=O)C(=O)N2CCCC[C@H]2C(=O)O[C@H]([C@H](C)C[C@@H]2CC[C@@H](OCCO)[C@H](OC)C2)CC(=O)[C@H](C)/C=C(\C)[C@@H](O)[C@@H](OC)C(=O)[C@H](C)C[C@H](C)/C=C/C=C/C=C/1C [S1120]	2.19 µM	2.81 µM
COc1nc(C)cnc1NS(=O)(=O)c1cccnc1-c1ccc(-c2nnco2)cc1 [S1456]	70.2 µM	64.3 µM
O=c1sn(-c2cccc3ccccc23)c(=O)n1Cc1ccccc1 [S2823]	17.9 µM	17.7 µM
S=C(NCc1ccc2c(c1)OCO2)N1CCN(c2ncnc3c2oc2ccccc23)CC1 [S1244]	51.5 µM	51.9 µM
FC(F)(F)c1ccc(/C=C/c2nc(COc3ccc(CCCCn4ccnn4)cc3)co2)cc1 [S2216]	41.1 µM	37.6 µM
CNC(=O)c1ccccc1Sc1ccc2c(/C=C/c3ccccn3)n[nH]c2c1 [S1005]	38.7 µM	43.9 µM
Cc1nc(Nc2ncc(C(=O)Nc3c(C)cccc3Cl)s2)cc(N2CCN(CCO)CC2)n1 [S1021]	0.81 µM	0.61 µM
C[C@]12CC[C@@H]3c4ccc(O)cc4CC[C@H]3[C@@H]1CC[C@@H]2O [S1709]	18 µM	18.8 µM

Compound	IC50 cell viability [1]	IC50 cell viability [2]
COc1c(C)c2c(c(O)c1C/C=C(\C)CCC(=O)O)C(=O)OC2 [S2487]	10.9 µM	9.95 µM
CN1CCN(c2ccc3nc(-c4c(N)c5c(F)cccc5[nH]c4=O)[nH]c3c2)CC1 [S1018]	12.9 µM	11.7 µM
CCN(CC)CCNC(=O)c1c(C)[nH]c(/C=C2\C(=O)Nc3ccc(F)cc32)c1C [S1042]	2.85 µM	2.98 µM
Nc1nc(CC(=O)Nc2ccc(CCNC[C@H](O)c3ccccc3)cc2)cs1 [S4009]	27 µM	23.9 µM
CCC(C)n1ncn(-c2ccc(N3CCN(c4ccc(OCC5COC(Cn6cncn6)(c6ccc(Cl)cc6Cl)O5)cc4)CC3)cc2)c1=O (configuration not stated) [S2476]	22.1 µM	23 µM
O=P1(NCCCl)OCCCN1CCCl (configuration not stated) [S1302]	53 µM	55.2 µM
NC(=O)C1CCCc2c1[nH]c1ccc(Cl)cc21 (configuration not stated) [S1541]	70.7 µM	65 µM
Nc1ccccc1NC(=O)c1ccc(CNC(=O)OCc2cccnc2)cc1 [S1053]	11 µM	11.2 µM
Cc1ccc(F)c(NC(=O)Nc2ccc(-c3cccc4[nH]nc(N)c34)cc2)c1 [S1003]	6.31 µM	6.22 µM
COc1cc2nccc(Oc3ccc(NC(=O)NC4CC4)c(Cl)c3)c2cc1C(N)=O [S1164]	21.1 µM	19.7 µM
Cc1cc(Nc2cc(N3CCN(C)CC3)nc(Sc3ccc(NC(=O)C4CC4)cc3)n2)n[nH]1 [S1048]	22.9 µM	22.7 µM
Cc1ccc(Nc2nccc(N(C)c3ccc4c(C)n(C)nc4c3)n2)cc1S(N)(=O)=O [S3012]	14 µM	12.6 µM
COc1cc2ncnc(Nc3ccc(F)c(Cl)c3)c2cc1OCCCN1CCOCC1 [S1025]	2.22 µM	1.71 µM
CCC(C)(C)C(=O)O[C@H]1C[C@@H](C)C=C2C=C[C@H](C)[C@H](CC[C@@H]3C[C@@H](O)CC(=O)O3)[C@H]21 [S1792]	26.2 µM	25 µM
CN(CCOc1ccc(CC2SC(=O)NC2=O)cc1)c1ccccn1 (configuration not stated) [S2556]	8.62 µM	7.63 µM
Cn1c(CCCC(=O)O)nc2cc(N(CCCl)CCCl)ccc21 [S1212]	15.8 µM	17 µM
CN(C)/N=N/c1[nH]cnc1C(N)=O [S1221]	52.8 µM	51.9 µM
O=S(=O)(O)CCS [S1735]	19.2 µM	18.3 µM
COc1cccc2c1C(=O)c1c(O)c3c(c(O)c1C2=O)CC(O)(C(=O)CO)CC3OC1CC(N)C(O)C(C)O1 (configuration not stated) [S1208]	1.85 µM	1.52 µM
Cc1c(C(=O)NN2CCCCC2)nn(-c2ccc(Cl)cc2Cl)c1-c1ccc(Cl)cc1 [S3021]	19 µM	17.7 µM
COc1nc(N)nc2c1ncn2[C@@H]1O[C@H](CO)[C@@H](O)[C@@H]1O [S1213]	1.66 µM	1.5 µM

Compound	IC50 cell viability [1]	IC50 cell viability [2]
COc1cccc2c1C(=O)c1c(O)c3c(c(O)c1C2=O)C[C@@](O)(C(C)=O)C[C@@H]3O[C@H]1C[C@H](N)[C@H](O)[C@H](C)O1 [S3035]	3.36 µM	3.39 µM
Nc1ccccc1NC(=O)c1ccc(CNc2nccc(-c3cccnc3)n2)cc1 [S1122]	1.29 µM	1.07 µM
C=C1/C(=C\C=C2/CCC[C@]3(C)[C@@H]([C@H](C)/C=C/[C@H](C)C(C)C)CC[C@@H]23)C[C@@H](O)C[C@@H]1O [S1467]	46.5 µM	45.7 µM
CO[C@H]1C[C@@H]2CC[C@@H](C)[C@@](O)(O2)C(=O)C(=O)N2CCCC[C@H]2C(=O)O[C@H]([C@H](C)C[C@@H]2CC[C@@H](OC(=O)C(C)(CO)CO)[C@H](OC)C2)CC(=O)[C@H](C)/C=C(\C)[C@@H](O)[C@@H](OC)C(=O)[C@H](C)C[C@H](C)/C=C/C=C/C=C/1C [S1044]	27 µM	24 µM
Cc1ccc(O)c([C@H](CCN(C(C)C)C(C)C)c2ccccc2)c1 [S2550]	10.2 µM	9.8 µM
Nc1nc(F)nc2c1ncn2[C@@H]1O[C@H](COP(=O)(O)O)[C@@H](O)[C@@H]1O [S1229]	2.26 µM	1.95 µM
CS(=O)(=O)CCNCc1ccc(-c2ccc3ncnc(Nc4ccc(OCc5cccc(F)c5)c(Cl)c4)c3c2)o1 [S1028]	16.8 µM	15 µM
CCCS(=O)(=O)Nc1ccc(F)c(C(=O)c2c[nH]c3ncc(-c4ccc(Cl)cc4)cc23)c1F [S1267]	17 µM	17.6 µM
Cc1ccccc1C(=O)Nc1ccc(C(=O)N2CCCC(O)c3cc(Cl)ccc32)c(C)c1 (configuration not stated) [S2593]	3.68 µM	3.47 µM
COc1cc2nc(N3CCN(C(=O)C4COc5ccccc5O4)CC3)nc(N)c2cc1OC (configuration not stated) [S1324]	18.1 µM	17.6 µM
O=C(CCCCCCC(=O)Nc1ccccc1)NO [S1047]	5.55 µM	5.13 µM
O=c1[nH]c(=O)n([C@H]2C[C@H](O)[C@@H](CO)O2)cc1F [S1299]	11.5 µM	11.4 µM
O=C1CCC(N2C(=O)c3ccccc3C2=O)C(=O)N1 (configuration not stated) [S1193]	29.9 µM	28.2 µM
CN1CCN(c2nc(C3=C(c4c[nH]c5ccccc45)C(=O)NC3=O)c3ccccc3n2)CC1 [S2791]	22.1 µM	20.1 µM
CCCCCCNC(=O)n1cc(F)c(=O)[nH]c1=O [S1289]	2.36 µM	2.4 µM
CCCCc1nc2cc(/C=C/C(=O)NO)ccc2n1CCN(CC)CC [S1515]	5.47 µM	5.05 µM
CC/C(=C(\c1ccccc1)c1ccc(OCCN(C)C)cc1)c1ccccc1 [S1972]	42 µM	36.7 µM
N#Cc1ccc(C(c2ccc(C#N)cc2)n2cncn2)cc1 [S1235]	12.5 µM	12.4 µM
Cc1cccc(C)c1NC1=NCCCS1 [S2516]	15.3 µM	14.1 µM
